# Measurements published in patent publication US20140275094A1, “METHOD FOR TREATING PULMONARY ARTERIAL HYPERTENSION IN A PATIENT NOT HAVING IDIOPATHIC PULMONARY FIBROSIS” (GILEAD SCIENCES, INC., priority 2012, published 2014).
# Columns and labels:
# [1] = Ambrisentan in subjects who discontinued bosentan/sitaxsentan due to aminotransferase elevations (AMB-222, AMB-323); assay type: in vivo, human; conditions: prior ERA discontinued for aminotransferase >3×ULN
# Description: They were enrolled in studies AMB-222 (n=36) and AMB-323 (n=27). […] The remaining subjects in these studies (a total of 4 subjects) did have an aminotransferase level>3×ULN and are included in Table 1.
# [2] = target: T1, OATP1B3 (Homo sapiens, UniProt Q9NPD5); test: Inhibition of OATP1B3, transfected CHO cells; assay type: cell-based; conditions: OAT1B3
# T1 construct: expressed in transfected cells; host or cells: CHO
# T1 sequence (Q9NPD5 1-702): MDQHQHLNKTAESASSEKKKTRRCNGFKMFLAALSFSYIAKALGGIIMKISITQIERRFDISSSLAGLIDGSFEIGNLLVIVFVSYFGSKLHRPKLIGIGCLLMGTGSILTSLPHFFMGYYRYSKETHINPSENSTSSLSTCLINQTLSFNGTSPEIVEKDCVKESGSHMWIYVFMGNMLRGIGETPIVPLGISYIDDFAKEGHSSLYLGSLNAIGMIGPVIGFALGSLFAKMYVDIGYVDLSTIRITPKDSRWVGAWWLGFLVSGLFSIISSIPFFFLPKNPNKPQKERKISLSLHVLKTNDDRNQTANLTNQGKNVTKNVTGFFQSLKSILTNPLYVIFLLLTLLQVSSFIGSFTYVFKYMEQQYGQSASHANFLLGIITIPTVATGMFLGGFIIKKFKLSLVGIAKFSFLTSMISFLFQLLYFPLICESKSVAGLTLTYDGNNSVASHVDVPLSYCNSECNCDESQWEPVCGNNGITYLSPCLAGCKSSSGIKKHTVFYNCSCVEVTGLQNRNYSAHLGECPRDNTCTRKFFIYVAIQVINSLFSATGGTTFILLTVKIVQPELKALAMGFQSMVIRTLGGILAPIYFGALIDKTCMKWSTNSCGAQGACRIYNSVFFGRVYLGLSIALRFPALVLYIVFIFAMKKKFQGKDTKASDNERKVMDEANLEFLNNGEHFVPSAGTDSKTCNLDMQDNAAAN
# Method: Inhibition constants (IC50) were measured for human bile salt export pump (BSEP), sodium taurocholate cotransporting polypeptide (NTCP), multidrug resistance protein 2 (MRP2), P-glycoprotein (Pgp), breast cancer resistance protein (BCRP), organic anion-transporting polypeptide 1B1 (OATP1B1), and OATP1B3 in transfected cell-lines. Known inhibitors were used as positive controls.
# [3] = Cumulative incidence of treatment-emergent serum aminotransferase abnormalities in clinical trials; assay type: in vivo, human
# Description: The ambrisentan clinical development program included placebo-controlled and non-placebo-controlled studies. One Phase 2 study (AMB-220) and two Phase 3 studies (AMB-320 and AMB-321) were completed at the time of the NDA submission. Three ongoing studies (AMB-220-E, AMB-222, and AMB-320/321-E) provided additional data in both the original NDA and the 4-month safety update, and data from one additional ongoing study (AMB-323) were included in the 4-month safety update.
# The cumulative incidence of aminotransferase elevations by severity, summarized as a percentage of the cumulative number of subjects who received ambrisentan in clinical trials, is provided in Table 1. The cumulative incidence of aminotransferase elevations>3×ULN (upper limit of the normal range) accompanied by total bilirubin>2×ULN was 0.3% (2 subjects, both with alternative causes for the liver function test (LFT) abnormalities); the associated mean exposure to ambrisentan was 112.5 weeks (maximum, 341.0 weeks). In comparison, during the 12-week placebo controlled trials, 1 patient (1/132, 0.7%) receiving placebo had elevated aminotransferases (both alanine transaminase (ALT) and aspartate transaminase (AST) were >5×ULN) along with elevated total bilirubin (>2×ULN).
# [4] = tested on: patients with PAH (WHO Group 1); test: ARIES-2 12-week placebo-controlled study; assay type: in vivo, human
# Method: Two 12-week, randomized, double-blind, placebo-controlled, multicenter studies were conducted in 393 patients with PAH (WHO Group 1). The two studies were identical in design except for the doses of ambrisentan and the geographic region of the investigational sites. ARIES-1 (Ambrisentan in Pulmonary Arterial Hypertension, Randomized, Double-Blind, Placebo-Controlled, Multicenter, Efficacy Studies) compared once-daily doses of 5 mg and 10 mg ambrisentan to placebo, […] In both studies, ambrisentan or placebo was added to current therapy, which could have included a combination of anticoagulants, diuretics, calcium channel blockers, or digoxin, but not epoprostenol, treprostinil, iloprost, bosentan, or sildenafil. The primary study endpoint was 6-minute walk distance. In addition, clinical worsening, WHO functional class, dyspnea, and SF-36® Health Survey were assessed.
# Patients had idiopathic or heritable PAH (64%) or PAH associated with connective tissue diseases (32%), HIV infection (3%), or anorexigen use (1%). There were no patients with PAH associated with congenital heart disease.
# Patients had WHO functional class I (2%), II (38%), III (55%), or IV (5%) symptoms at baseline. The mean age of patients was 50 years, 79% of patients were female, and 77% were Caucasian.
# Clinical Worsening: Time to clinical worsening of PAH was defined as the first occurrence of death, lung transplantation, hospitalization for PAH, atrial septostomy, study withdrawal due to the addition of other PAH therapeutic agents or study withdrawal due to early escape. Early escape was defined as meeting two or more of the following criteria: a 20% decrease in the 6-minute walk distance; an increase in WHO functional class; worsening right ventricular failure; rapidly progressing cardiogenic, hepatic, or renal failure; or refractory systolic hypotension.
# [5] = tested on: patients with PAH; test: Long-term follow-up of the two pivotal studies and open-label extension; assay type: in vivo, human; conditions: 2.5, 5 or 10 mg once daily, N=383
# Method: Long-term Treatment of PAH: In long-term follow-up of patients who were treated with ambrisentan (2.5 mg, 5 mg, or 10 mg once daily) in the two pivotal studies and their open-label extension (N=383), Kaplan-Meier estimates of survival at 1, 2, and 3 years were 93%, 85%, and 79%, respectively. Of the patients who remained on ambrisentan for up to 3 years, the majority received no other treatment for PAH.
# [6] = >3 × ULN and total bilirubin > 2 × ULN, N = 707
# [7] = Total > 3 × ULN, all subjects N = 707
# [8] = ARIES-2, 5 mg (N = 64), 12 weeks
# [9] = ARIES-2, ambrisentan N = 127, 12-week treatment, intention-to-treat
compound,measurement,setting,value
"COC(c1ccccc1)(c1ccccc1)[C@H](Oc1nc(C)cc(C)n1)C(=O)O [Ambrisentan, (25)-2-[(4,6-dimethylpyrimidin-2-yl)oxy]-3-methoxy-3,3-diphenylpropanoic acid]",subjects who did not experience aminotransferase elevations while receiving ambrisentan,[1]; AMB-222 (n=36),97%
same,subjects who did not experience aminotransferase elevations while receiving ambrisentan,[1]; AMB-323 (n=27),89%
same,IC50,[2],44.6 ± 23.8 µM
same,"ALT/AST elevations, patient number","[3]; >3 to ≦5 × ULN, N = 707",25
same,"ALT/AST elevations, patients (%)","[3]; >3 to ≦5 × ULN, N = 707",(3.5) %
same,"ALT/AST elevations, patient number",[3]; [6],2
same,"ALT/AST elevations, patients (%)",[3]; [6],(0.3) %
same,"ALT/AST elevations, patients (%)","[3]; >3 × ULN and total bilirubin > 2 × ULN, N = 707, listed as ambrisentan",0.3%
same,"ALT/AST elevations, patient number","[3]; >5 to ≦8 × ULN, N = 707",1
same,"ALT/AST elevations, patients (%)","[3]; >5 to ≦8 × ULN, N = 707",(0.1) %
same,"ALT/AST elevations, patient number","[3]; >8 × ULN, N = 707",9
same,"ALT/AST elevations, patients (%)","[3]; >8 × ULN, N = 707",(1.3) %
same,"ALT/AST elevations, patient number",[3]; [7],35
same,"ALT/AST elevations, patients (%)",[3]; [7],(5.0) %
same,Placebo-adjusted mean change from baseline in 6-minute walk distance,[4]; [8],32 meters
same,Placebo-adjusted median change from baseline in 6-minute walk distance,[4]; [8],30 meters
same,Mean change from baseline in 6-minute walk distance,"[4]; ARIES-2, 5 mg (N = 64), 12 weeks, mean ± SD",22 ± 83 meters
same,"Clinical worsening, %",[4]; [9],6%
same,"Clinical worsening, no.",[4]; [9],8
same,"Time to clinical worsening, hazard ratio","[4]; ARIES-2, versus placebo",0.30
same,Kaplan-Meier estimate of survival,[5]; at 1 year,93%
same,Kaplan-Meier estimate of survival,[5]; at 2 years,85%
same,Kaplan-Meier estimate of survival,[5]; at 3 years,79%
COc1ccccc1Oc1c(NS(=O)(=O)c2ccc(C(C)(C)C)cc2)nc(-c2ncccn2)nc1OCCO [Bosentan],IC50,[2],5.2 ± 2.1 µM
